In assay [1] the test system is mouse oocytes arrested at MII. The following applies: standard ethanol activation protocol, data not shown.
A further assay deals with Metaphase II oocytes. The assay can be described thus: Induced enucleation of activated Metaphase II oocytes (2nd polar body extrusion). The following applies: MII oocytes activated with 7% EtOH or 2 μM ionomycin; Taxol 5 μg/mL, cycloheximide 10 μg/mL, demecolcine 0.4 μg/mL; control 3.7%. The format is cell-based. As for the experimental part:
Metaphase II oocytes are activated with 7% EtOH or 2 μM ionomycin, followed by treatment with Taxol (5 μg/mL), or cycloheximide (10 μg/mL) or demecolcine (0.4 μg/mL), resulting in the 2nd polar body extrusion.
With demecoleine-induced enucleation, activated oocytes are treated with the microttibuline destabilizing drug, demecolcine. The resulting cytoplasts are competent to support term developments. Often, cytoplasts fail to complete the second polar body extrusion. Induced enucleation can take place, just prior to activation or just after activation.

In another assay the test system is meiotic spindle. The assay can be described thus: Effect of demecolcine on meiotic spindle and chromatin in activated mouse oocytes. The format is cell-based. The following applies: 0.4 μg/mL, SrCl2-activated oocytes. As to the method: (§1) In order to induce superovulation in donor mice, female CF-1 mice (Charles River Laboratories) of breeding age were injected with Pregnant Mare Serum Gonadotropin (PMSG, Calbiochem) and Human Chorionic Gonadotropin (hCG, Calbiochem). For both hormones, 5IU was administered per mouse via intraperitioneal injection. PMSG was injected 64 hours before collection and hCG was given 48 hours later. Oviducts were dissected from mice euthanized by CO2 asphyxiation and placed in FHM media (Chemicon) at 37° C. Oocytes were separated from surrounding cumulus cells by a brief exposure to bovine hyaluronidase (HA, Sigma, 150 units/ml, <10 minutes). Oocytes with poor morphology (lysed, fragmented, dark pigmentation) were discarded. Oocytes were washed three times in FHM media and randomly sorted into treatment groups. Some oocytes were immediately fixed (see below) at Metaphase of Meiosis II (MII). […]
(§2) To localize Apc11, a polyclonal antibody raised in rabbits against N-terminal amino acids of human Apc11 (Santa Cruz) was used as a primary antibody. […] Imaging was accomplished on a Zeiss Axiovert 200M inverted fluorescence microscope coupled to a Roper CoolSnapFx camera through a 63× oil emersion objective and 10× eyepiece/camera lens. […]

For the next assay, the system named is Apc11. The assay can be described thus: Effect of demecolcine on Apc11 spatial localization in mouse oocytes. In kind it is cell-based. The following applies: 0.4 μg/mL, SrCl2-activated oocytes, AII, TII, Interphase. As for the experimental part:
as §1, §2

In the next assay the test system is Cdc20. The assay can be described thus: Effect of demecolcine on Cdc20 localization in mouse oocytes. In kind it is cell-based. The following applies: 0.4 μg/mL, SrCl2-activated oocytes, throughout development. As to the method: (§3) In order to induce superovulation in donor mice, female CF-1 mice (Charles River Laboratories) of breeding age were injected with Pregnant Mare Serum Gonadotropin (PMSG, Calbiochem) and Human Chorionic Gonadotropin (hCG, Calbiochem). For both hormones, 5IU was administered per mouse via intraperitioneal injection. PMSG was injected 64 hours before collection and hCG was given 48 hours later. Oviducts were dissected from mice euthanized by CO2 asphyxiation and placed in FHM media (Chemicon) at 37° C. Oocytes were separated from surrounding cumulus cells by a brief exposure to bovine hyaluronidase (HA, Sigma, 150 units/ml, <10 minutes). Oocytes with poor morphology (lysed, fragmented, dark pigmentation) were discarded. Oocytes were washed three times in FHM media and randomly sorted into treatment groups. Some oocytes were immediately fixed (see below) at Metaphase of Meiosis II (MII).
(§4) For SrCl2 activation, the denuded oocytes were washed 3 times in FHM, 3 to 4 times in KSOM (without Ca^+2, Chemicon) equilibrated to 37° C. in 5% CO2, and then incubated in KSOM containing 10 mM strontium chloride at 37° C. with 5% CO2. After 15 minutes, some oocytes, depending on experimental design, were transferred to KSOM containing both SrCl2 (10 mM) and demecolcine (0.4 μg/mL) and incubated at 37° C. with 5% CO2. […]

The test system of the next assay is Rec8. The assay can be described thus: Effect of demecolcine on Rec8 localization in mouse oocytes. In kind it is cell-based. The following applies: 0.4 μg/mL, SrCl2-activated oocytes. As to the method:
as §3, §4

Consider four molecules from patent US20130102838A1, “Oocyte Spindle-Associated Factors Improve Somatic Cell Cloning” (WORCESTER POLYTECHNIC INSTITUTE, priority 2007, published 2013).

For `CCO` [ethanol], the “eggs per experiment that failed to leave MII” value in assay [1] was ≤ 50%.

On to `CN[C@H]1CCc2cc(OC)c(OC)c(OC)c2-c2ccc(OC)c(=O)cc21` [demecolcine], for which the “induced enucleation, 2nd polar body extrusion” value (from here on “induced enucleation”) with Metaphase II oocytes was determined as 54%. The extrusion of chromatin entry in the assay with meiotic spindle (Interphase (FIG. 16)) is “completely extrudes its chromatin in the second polar body”. Also, the meiotic spindle integrity entry with meiotic spindle (compared to control eggs) is given as “severely disrupted”. In the assay with Apc11, the Apc11 staining pattern result is given as “non-distinct ataxia across the entire oocyte with no evidence of colocalization in any stage of development”. The Cdc20 staining pattern result with Cdc20 is “low levels of muddled signal across the cytoplasm”. In the assay with Rec8 (Anaphase II), the “Rec8 localization during Anaphase” value is recorded as “aggregate in an area surrounding the chromatin, but not directly over it”. Further, the “Rec8 localization during Telophase” value with Rec8 (Telophase II, continues into Interphase) is “direct colocalization (purple spots) with the chromatin”.

For `C[C@@H]1C[C@@H]([C@H](O)CC2CC(=O)NC(=O)C2)C(=O)[C@@H](C)C1` [cycloheximide], the “induced enucleation” value with Metaphase II oocytes is 16.3%.

Turning to `CC(=O)O[C@H]1C(=O)[C@@]2(C)[C@H]([C@H](OC(=O)c3ccccc3)[C@]3(O)C[C@H](OC(=O)[C@H](O)[C@@H](NC(=O)c4ccccc4)c4ccccc4)C(C)=C1C3(C)C)[C@]1(OC(C)=O)CO[C@@H]1C[C@@H]2O` [Taxol], the “induced enucleation” value in the assay on Metaphase II oocytes stood at 3.6%.
